Reference: ChEMBL document CHEMBL1155978, “Identification of positron emission tomography ligands for NPY Y5 receptors in the brain” (Bioorg Med Chem Lett, 2009)
Blank lines part the entries; values can stand above or below the compound they belong to.

How the values were obtained:
[1] = molecular target: T1, Neuropeptide Y receptor type 5 (Homo sapiens, UniProt Q15761); assay: Displacement of [125I]PYY from human recombinant NPY Y5 receptor expressed in mouse LMtk cells; type: cell-based
T1 sequence (Q15761 whole entry): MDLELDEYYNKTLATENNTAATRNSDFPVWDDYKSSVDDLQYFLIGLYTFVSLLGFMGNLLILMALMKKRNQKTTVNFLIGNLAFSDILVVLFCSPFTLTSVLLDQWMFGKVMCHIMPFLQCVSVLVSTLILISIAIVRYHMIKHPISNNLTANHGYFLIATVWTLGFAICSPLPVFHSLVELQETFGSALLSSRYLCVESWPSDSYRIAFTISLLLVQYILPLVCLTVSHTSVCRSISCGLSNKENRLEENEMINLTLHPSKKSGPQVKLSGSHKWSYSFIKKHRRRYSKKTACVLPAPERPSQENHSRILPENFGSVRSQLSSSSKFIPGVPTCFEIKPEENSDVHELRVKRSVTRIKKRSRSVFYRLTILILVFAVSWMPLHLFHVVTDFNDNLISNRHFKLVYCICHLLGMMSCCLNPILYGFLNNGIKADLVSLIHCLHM

[2] = Lipophilicity, Log D at pH 7.4; details: buffer
[3] = test system: Rattus norvegicus; assay: Plasma concentration in rat at 3 mg/kg, iv; type: ADME, organism-based; parameters: dose 3 mg/kg, route intravenous; details: in vivo; further: time not given here
[4] = test system: Brain; assay: Drug level in rat brain at 3 mg/kg, iv; type: ADME, organism-based; parameters: dose 3 mg/kg, route intravenous; details: in vivo; on Drug uptake: time not given here
[5] = test system: Cerebrospinal fluid; assay: Drug level in rat cerebrospinal fluid at 3 mg/kg, iv; type: ADME, organism-based; parameters: dose 3 mg/kg, route intravenous; details: in vivo, read-out: Drug uptake; further: time not given here
[6] = Ratio of drug level in rat brain to plasma at 3 mg/kg, iv; type: ADME, organism-based; parameters: dose 3 mg/kg, route intravenous
[7] = Ratio of drug level in cerebrospinal fluid to brain of rat at 3 mg/kg, iv; type: ADME, organism-based, CSF/Brain; parameters: dose 3 mg/kg, route intravenous; details: in vivo
[8] = test system: LLC-PK1; assay: Efflux ratio of permeability from […] side in human MDR1 gene transfected pig LLC-PK1 cells; type: ADME, cell-based, Sus scrofa
[9] = test system: LLC-PK1; assay: Efflux ratio of permeability from […] side in mouse mdr1a gene transfected pig LLC-PK1 cells; type: ADME, cell-based, Sus scrofa
[10] = molecular target: T2, Neuropeptide Y receptor type 1 (Homo sapiens, UniProt P25929); assay: Inhibition of human NPY Y1 receptor
T2 sequence (P25929 whole entry): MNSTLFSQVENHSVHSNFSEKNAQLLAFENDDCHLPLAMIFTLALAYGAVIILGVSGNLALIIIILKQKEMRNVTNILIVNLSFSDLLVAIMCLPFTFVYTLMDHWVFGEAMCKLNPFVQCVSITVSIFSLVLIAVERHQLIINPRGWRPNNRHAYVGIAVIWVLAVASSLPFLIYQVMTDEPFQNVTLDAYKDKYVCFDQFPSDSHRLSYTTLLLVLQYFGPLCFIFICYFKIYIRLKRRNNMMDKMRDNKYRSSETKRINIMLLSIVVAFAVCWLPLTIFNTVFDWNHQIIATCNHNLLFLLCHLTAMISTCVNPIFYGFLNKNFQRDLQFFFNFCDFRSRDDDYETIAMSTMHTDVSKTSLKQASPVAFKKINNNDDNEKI

[11] = molecular target: T3, Neuropeptide Y receptor type 2 (Homo sapiens, UniProt P49146); assay: Inhibition of human NPY Y2 receptor
T3 sequence (P49146 whole entry): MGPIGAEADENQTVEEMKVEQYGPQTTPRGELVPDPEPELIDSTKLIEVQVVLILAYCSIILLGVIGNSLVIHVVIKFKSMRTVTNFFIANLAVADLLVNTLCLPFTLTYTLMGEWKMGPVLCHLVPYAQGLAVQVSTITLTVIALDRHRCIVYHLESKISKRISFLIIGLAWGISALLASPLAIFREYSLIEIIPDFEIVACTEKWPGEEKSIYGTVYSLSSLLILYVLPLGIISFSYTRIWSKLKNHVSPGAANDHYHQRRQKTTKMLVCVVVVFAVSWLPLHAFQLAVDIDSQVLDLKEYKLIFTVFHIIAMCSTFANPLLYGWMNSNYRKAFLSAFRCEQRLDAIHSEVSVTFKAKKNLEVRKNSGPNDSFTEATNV

[12] = molecular target: Neuropeptide Y receptor type 4 (Homo sapiens, UniProt P50391); assay: Inhibition of human NPY Y4 receptor
Sequence of Neuropeptide Y receptor type 4 (P50391 whole entry): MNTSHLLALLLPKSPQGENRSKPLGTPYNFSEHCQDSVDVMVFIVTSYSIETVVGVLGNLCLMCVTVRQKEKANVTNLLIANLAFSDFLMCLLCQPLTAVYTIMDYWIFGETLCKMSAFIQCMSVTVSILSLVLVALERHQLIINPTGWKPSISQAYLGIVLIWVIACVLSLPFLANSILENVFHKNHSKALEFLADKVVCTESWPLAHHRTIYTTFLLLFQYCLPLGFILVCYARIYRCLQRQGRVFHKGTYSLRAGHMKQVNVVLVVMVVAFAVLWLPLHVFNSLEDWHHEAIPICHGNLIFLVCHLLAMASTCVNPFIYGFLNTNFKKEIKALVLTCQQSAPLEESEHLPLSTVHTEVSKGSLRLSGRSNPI

SMILES: O=C1O[C@]2(CC[C@H](C(=O)Nc3ncc(-c4cccc(OCF)c4)cn3)CC2)c2cccnc21
IC50 [1]: 3.1 nM

SMILES: O=C1O[C@]2(CC[C@H](C(=O)Nc3ncc(-c4ccc(F)cc4)cn3)CC2)c2cnccc21
IC50 [1]: 2.7 nM

SMILES: O=C1O[C@]2(CC[C@H](C(=O)Nc3ncc(-c4ccccc4F)cn3)CC2)c2cccnc21
IC50 [1]: 3 nM

SMILES: O=C1O[C@]2(CC[C@H](C(=O)Nc3ncc(-c4cccc(OCF)c4)cn3)CC2)c2ccncc21
IC50 [1]: 1.8 nM
logD [2]: 2.71
concentration [3]: 1500 nM
concentration ([4]; read-out: Drug uptake): 150 nM
concentration [5]: 64 nM
Kp [6]: 0.11
Ratio [7]: 0.42
Ratio [8]: 1.52
Ratio [9]: 9.51

SMILES: O=C1O[C@]2(CC[C@H](C(=O)Nc3ncc(-c4ccccc4)cn3)CC2)c2cccnc21
IC50 [1]: 2.1 nM
logD [2]: 2.32

SMILES: O=C1O[C@]2(CC[C@H](C(=O)Nc3ncc(-c4ccc(F)cc4)cn3)CC2)c2cccnc21
IC50 [1]: 7.5 nM

SMILES: O=C1O[C@]2(CC[C@H](C(=O)Nc3ncc(-c4ccccc4)cn3)CC2)c2ccncc21
IC50 [1]: 2 nM

SMILES: O=C1O[C@]2(CC[C@H](C(=O)Nc3ncc(-c4ccccc4)cn3)CC2)c2ccccc21
IC50 [1]: 0.64 nM
logD [2]: 3.73

SMILES: O=C1O[C@]2(CC[C@H](C(=O)Nc3ncc(-c4ccc(F)cc4)cn3)CC2)c2ccncc21
IC50 [1]: 2.2 nM

SMILES: O=C1O[C@]2(CC[C@H](C(=O)Nc3ncc(-c4cccc(F)c4)cn3)CC2)c2ccncc21
IC50 [1]: 1.5 nM
logD [2]: 2.78
concentration [3]: 3450 nM
concentration ([4]; read-out: Drug uptake): 1420 nM
concentration [5]: 308 nM
Kp [6]: 0.41
Ratio [7]: 0.22
Ratio [8]: 1.41
Ratio [9]: 7.78

SMILES: O=C1O[C@]2(CC[C@H](C(=O)Nc3ncc(-c4cccc(CF)c4)cn3)CC2)c2cccnc21
IC50 [1]: 2.3 nM

SMILES: O=C1O[C@]2(CC[C@H](C(=O)Nc3ncc(-c4cccc(F)c4)cn3)CC2)c2cccnc21
IC50 [1]: 2.2 nM
logD [2]: 2.48

SMILES: O=C1O[C@]2(CC[C@H](C(=O)Nc3ncc(-c4ccccc4)cn3)CC2)c2ncccc21
IC50 [1]: 2.9 nM
logD [2]: 2.71

SMILES: O=C1O[C@]2(CC[C@H](C(=O)Nc3ncc(-c4ccccc4OCF)cn3)CC2)c2cccnc21
IC50 [1]: 4.5 nM

Second part, the compound after the results:

IC50 [1]: 2.2 nM
SMILES: O=C1O[C@]2(CC[C@H](C(=O)Nc3ncc(-c4ccccc4OCF)cn3)CC2)c2ccncc21

IC50 [1]: 2.6 nM
logD [2]: 2.71
SMILES: O=C1O[C@]2(CC[C@H](C(=O)Nc3ncc(-c4ccccc4OCF)cn3)CC2)c2cnccc21

IC50 [1]: 1.9 nM
logD [2]: 2.75
concentration [3]: 2040 nM
concentration ([4]; read-out: Drug uptake): 740 nM
concentration [5]: 95 nM
Kp [6]: 0.37
Ratio [7]: 0.13
Ratio [8]: 1.37
Ratio [9]: 8.23
SMILES: O=C1O[C@]2(CC[C@H](C(=O)Nc3ncc(-c4cccc(OCF)c4)cn3)CC2)c2cnccc21

IC50 [1]: 1.5 nM
logD [2]: 2.79
concentration [3]: 3100 nM
concentration ([4]; read-out: Cp): 1550 nM
concentration [5]: 288 nM
Kp [6]: 0.5
Ratio [7]: 0.19
Ratio [8]: 1.11
Ratio [9]: 4.43
IC50 [10]: > 10000 nM
IC50 [11]: > 10000 nM
IC50 [12]: > 10000 nM
SMILES: O=C1O[C@]2(CC[C@H](C(=O)Nc3ncc(-c4ccccc4F)cn3)CC2)c2ccncc21

IC50 [1]: 1.8 nM
logD [2]: 2.65
SMILES: O=C1O[C@]2(CC[C@H](C(=O)Nc3ncc(-c4ccccc4)cn3)CC2)c2cnccc21

IC50 [1]: 1.8 nM
SMILES: O=C1O[C@]2(CC[C@H](C(=O)Nc3ncc(-c4cccc(F)c4)cn3)CC2)c2cnccc21

IC50 [1]: 2 nM
logD [2]: 2.54
SMILES: O=C1O[C@]2(CC[C@H](C(=O)Nc3ncc(-c4ccccc4CF)cn3)CC2)c2cnccc21

IC50 [1]: 1.8 nM
logD [2]: 2.65
concentration [3]: 1220 nM
concentration ([4]; read-out: Drug uptake): 370 nM
concentration [5]: 79 nM
Kp [6]: 0.3
Ratio [7]: 0.22
Ratio [8]: 1.69
Ratio [9]: 7.9
SMILES: O=C1O[C@]2(CC[C@H](C(=O)Nc3ncc(-c4cccc(CF)c4)cn3)CC2)c2cnccc21

IC50 [1]: 1.8 nM
logD [2]: 2.79
SMILES: O=C1O[C@]2(CC[C@H](C(=O)Nc3ncc(-c4ccccc4F)cn3)CC2)c2cnccc21
